Assay results published in patent US10610467B2, “Lightening composition comprising ginseng-derived exosome-like vesicles” (AMOREPACIFIC CORPORATION, priority 2015, dated 2020).

Tested on: Human primary melanocytes
Test: Melanin production by human melanocytes irradiated with 20 mJ/cm^2 UVB 2 times, treated with test substances for 2 weeks (Test Example 3)
Type: cell-based
Protocol: Human primary melanocytes (Life Technologies, CA, USA) were cultured in M-254 medium (Gibco BRL, NY, USA) supplemented with human melanocyte growth supplement (HMGS; Gibco BRL, NY, USA) under the condition of 37° C. and 5% CO2. After plating the cells on a 100-mm culture dish with 2×10^5 cells per dish and waiting overnight, 20 mJ/cm^2 UVB was radiated 2 times with a 24-hour interval. Then, the cells were cultured for 2 weeks while replacing the medium with one containing the ginseng-derived exosome-like vesicles obtained in Example 1 at concentrations of 0.1 μg/mL, 1 μg/m L, 5 μg/mL or 10 μg/mL once in 4 days. For comparison, positive control groups were treated with 30 μM Melasolv, 1 μM compound K or 2 ppm fermented saponin for 2 weeks in the same manner and melanin production was measured. As negative control groups, melanocytes not treated with UVB and melanocytes treated with UVB but not treated with the test substances were cultured in the same manner. 2 weeks later, the cells were detached from the culture dish and counted. The cells of the same number were collected into a microtube, lysed with a RIPA lysis buffer (Millipore, 20-188) and then centrifuged at 13,500 rpm for 30 minutes. The precipitating pellets were dissolved in 1 N NaOH and photographed for comparison of color. Melanin contents were compared by measuring absorbance at 450 nm.

Row | Structure (SMILES) | Decrease (%) in melanin contents (1 μM) [%] | Decrease (%) in melanin contents (30 μM) [%]
1 | CC(C)=CCC[C@](C)(O[C@@H]1O[C@H](CO)[C@@H](O)[C@H](O)[C@H]1O)[C@H]1CC[C@]2(C)[C@@H]1[C@H](O)C[C@@H]1[C@@]3(C)CC[C@H](O)C(C)(C)[C@@H]3CC[C@]12C [Comp. K, compound K] | 28.3 | –
2 | COc1cc(/C=C/C(=O)Oc2cc(C)ccc2C(C)C)cc(OC)c1OC [Melasolv] | – | 54.0
